Measurements from patent US20250214991A1 (Oncopia Therapeutics, Inc. d/b/a/ SK Life Science Labs, priority 2022, published 2025).

Columns and labels:
CRBN/DDB1 = CRBN/DDB1 (Homo sapiens (Human), UniProt Q96SW2); assay: IC50 measurements for binding to CRBN/DDB1 (HTRF); conditions: His tagged CRBN+DDB, Cy5-labeled Thalidomide probe, one hour
Procedure: In vitro Assay: IC50 Measurements for binding to CRBN/DDB1 (Table E1)
The binding potency was determined using HTRF assay technology (Perkin Elmer). Compounds were serially diluted in DMSO and 0.2 μL volume was transferred to white 384-well plate. The reaction was conducted in total volume of 20 μL with addition of 2 nM His tagged CRBN+DDB−DLS7+CXU4 (Wuxi, catalogue #RP210521GA) to compounds followed by addition of 60 nM Fluorescent probe Cy5-labeled Thalidomide (Tenova Pharma, catalogue #T52461), and 0.4 nM of MAb Anti-6HIS Tb cryptate Gold (Cisbio, catalogue #61HI2TLA in the assay buffer (50 mM HEPES pH 7.5, 1 mM TCEP, 0.01% Brij-35, 50 mM NaCl, and 0.1% BSA). After one hour incubation at room temperature, the HTRF signals were read on Envision reader (Perkin Elemer). Data was analyzed using XLfit using four parameters dose response curve to determine IC50s. A: IC50<0.1 μM; B: 0.1 μM<IC50<[…]; C: 0.5 μM<IC50<1 μM; D: 1 μM<IC50<5 μM; E: 5 μM<IC50<10 μM

IKZF2 = IKZF2 (Homo sapiens (Human), UniProt Q96SW2+Q9UKS7); assay: In vitro IKZF2 HiBit Assay (HEK293T Flp-in-HiBiT cells); assay type: cell-based; conditions: HEK293T Flp-in-HiBiT cells, 6 hrs incubation; for DC50: read-out: IKZF2 HiBit DC50; for Dmax: HEK-293T, read-out: IKZF2 HiBit Dmax (%)
IKZF2, sequence (Q9UKS7 whole entry): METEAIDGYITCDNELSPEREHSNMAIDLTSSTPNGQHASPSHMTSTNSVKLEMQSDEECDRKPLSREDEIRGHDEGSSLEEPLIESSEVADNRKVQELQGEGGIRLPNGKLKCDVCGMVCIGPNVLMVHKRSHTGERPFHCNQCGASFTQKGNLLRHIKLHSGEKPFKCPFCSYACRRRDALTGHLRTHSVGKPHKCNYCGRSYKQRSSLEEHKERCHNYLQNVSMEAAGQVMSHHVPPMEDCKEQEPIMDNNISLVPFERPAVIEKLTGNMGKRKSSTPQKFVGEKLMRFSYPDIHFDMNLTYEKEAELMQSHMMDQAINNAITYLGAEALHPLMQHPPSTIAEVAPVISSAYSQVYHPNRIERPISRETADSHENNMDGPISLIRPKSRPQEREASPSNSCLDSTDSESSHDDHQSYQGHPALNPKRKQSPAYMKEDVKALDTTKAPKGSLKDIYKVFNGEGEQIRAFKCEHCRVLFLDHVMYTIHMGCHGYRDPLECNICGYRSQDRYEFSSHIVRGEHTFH
IKZF2, sequence (Q96SW2 whole entry): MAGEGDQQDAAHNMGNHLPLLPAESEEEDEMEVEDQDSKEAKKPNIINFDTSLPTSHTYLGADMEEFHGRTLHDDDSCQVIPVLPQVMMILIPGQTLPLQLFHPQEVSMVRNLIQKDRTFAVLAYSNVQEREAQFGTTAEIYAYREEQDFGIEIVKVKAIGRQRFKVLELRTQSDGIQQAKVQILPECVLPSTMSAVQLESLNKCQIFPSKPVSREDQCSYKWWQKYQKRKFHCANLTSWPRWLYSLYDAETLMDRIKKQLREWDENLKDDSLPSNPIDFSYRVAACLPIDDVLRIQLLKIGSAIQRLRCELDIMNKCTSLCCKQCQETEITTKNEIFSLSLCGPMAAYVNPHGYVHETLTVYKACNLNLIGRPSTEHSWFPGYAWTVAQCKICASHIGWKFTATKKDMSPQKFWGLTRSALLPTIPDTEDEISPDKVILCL
IKZF2, sequence (Q16531 2-1140 partner): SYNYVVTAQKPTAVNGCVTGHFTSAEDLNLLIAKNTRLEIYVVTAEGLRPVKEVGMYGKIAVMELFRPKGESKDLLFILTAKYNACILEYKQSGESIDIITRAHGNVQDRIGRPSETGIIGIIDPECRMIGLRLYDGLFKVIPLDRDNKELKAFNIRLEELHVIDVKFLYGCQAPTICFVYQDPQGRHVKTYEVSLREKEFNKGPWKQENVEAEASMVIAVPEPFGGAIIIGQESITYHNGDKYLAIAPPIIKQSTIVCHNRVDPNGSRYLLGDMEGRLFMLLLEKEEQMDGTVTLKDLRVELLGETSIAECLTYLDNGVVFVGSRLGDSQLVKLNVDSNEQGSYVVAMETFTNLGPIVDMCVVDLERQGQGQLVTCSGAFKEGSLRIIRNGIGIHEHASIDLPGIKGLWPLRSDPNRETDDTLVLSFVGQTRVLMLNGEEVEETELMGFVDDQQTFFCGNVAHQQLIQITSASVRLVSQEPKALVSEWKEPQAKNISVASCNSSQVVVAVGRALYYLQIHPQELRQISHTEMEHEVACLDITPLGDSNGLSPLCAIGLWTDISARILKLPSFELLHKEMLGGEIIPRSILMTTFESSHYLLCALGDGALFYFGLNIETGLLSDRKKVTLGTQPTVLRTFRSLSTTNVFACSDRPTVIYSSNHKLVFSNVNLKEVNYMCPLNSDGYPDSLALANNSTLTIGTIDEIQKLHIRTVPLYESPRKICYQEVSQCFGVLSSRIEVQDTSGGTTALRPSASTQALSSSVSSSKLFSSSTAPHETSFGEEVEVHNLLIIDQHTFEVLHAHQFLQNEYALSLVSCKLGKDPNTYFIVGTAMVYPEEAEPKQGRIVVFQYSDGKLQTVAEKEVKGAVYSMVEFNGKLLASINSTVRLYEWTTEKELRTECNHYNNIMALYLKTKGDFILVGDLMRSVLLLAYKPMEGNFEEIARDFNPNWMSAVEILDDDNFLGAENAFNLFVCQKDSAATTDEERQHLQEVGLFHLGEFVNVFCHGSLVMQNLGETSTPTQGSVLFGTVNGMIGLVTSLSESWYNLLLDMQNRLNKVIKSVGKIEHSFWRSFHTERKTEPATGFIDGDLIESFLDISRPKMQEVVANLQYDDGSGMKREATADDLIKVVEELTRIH
Procedure, shortened: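 Remaining tagged Helios was read as lytic HiBiT/LgBiT luminescence normalized to DMSO, yielding binned DC50 and Dmax values. Treatment ran 6 h, with compounds at 11 three-fold doses diluted from 1 mM and 0.1% final DMSO. The cells were HEK293T Flp-in with CRISPR knock-in of HiBiT at the IKZF2 N-terminus.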

IKZF1 = IKZF1 (Homo sapiens (Human), UniProt Q13422+Q96SW2); assay: In vitro IKZF1 HiBit Assay (HEK293T Flp-in-HiBiT-IKZF1 stable cell line); assay type: cell-based; conditions: HEK293T Flp-in-HiBiT-IKZF1 stable cell line, 6 hrs incubation; for DC50: read-out: IKZF1 HiBit DC50; for Dmax: HEK-293T, read-out: IKZF1 HiBit Dmax (%)
IKZF1, sequence (Q13422 whole entry): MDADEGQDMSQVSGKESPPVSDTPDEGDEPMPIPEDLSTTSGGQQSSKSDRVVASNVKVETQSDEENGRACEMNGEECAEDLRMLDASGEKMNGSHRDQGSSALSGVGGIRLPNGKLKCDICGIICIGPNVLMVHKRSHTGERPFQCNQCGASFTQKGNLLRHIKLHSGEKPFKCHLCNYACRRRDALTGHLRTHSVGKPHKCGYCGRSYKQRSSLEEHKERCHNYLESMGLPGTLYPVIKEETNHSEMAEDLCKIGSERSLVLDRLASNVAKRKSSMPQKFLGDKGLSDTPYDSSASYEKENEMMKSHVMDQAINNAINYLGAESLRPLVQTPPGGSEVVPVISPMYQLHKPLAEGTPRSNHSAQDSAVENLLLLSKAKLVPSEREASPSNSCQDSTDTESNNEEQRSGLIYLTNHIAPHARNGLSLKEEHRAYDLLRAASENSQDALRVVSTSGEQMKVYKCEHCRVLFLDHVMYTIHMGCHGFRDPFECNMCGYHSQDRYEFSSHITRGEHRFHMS
IKZF1, sequence (Q96SW2 whole entry): as the sequence (Q96SW2 whole entry) above
IKZF1, sequence (Q16531 2-1140 partner): as the sequence (Q16531 2-1140 partner) above
Procedure, shortened: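 Degradation was measured as loss of luminescence from the HiBiT-IKZF1 tag after 6 h compound treatment, with 0.1% final DMSO, in stable HEK293T Flp-in cells. Values were normalized to DMSO, giving the 50% degradation concentration and the maximal degradation range.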

CRBN/DDB1, sequence (Q96SW2 whole entry, species assumed): as the sequence (Q96SW2 whole entry) above
CRBN/DDB1, sequence (Q16531 whole entry partner, species assumed): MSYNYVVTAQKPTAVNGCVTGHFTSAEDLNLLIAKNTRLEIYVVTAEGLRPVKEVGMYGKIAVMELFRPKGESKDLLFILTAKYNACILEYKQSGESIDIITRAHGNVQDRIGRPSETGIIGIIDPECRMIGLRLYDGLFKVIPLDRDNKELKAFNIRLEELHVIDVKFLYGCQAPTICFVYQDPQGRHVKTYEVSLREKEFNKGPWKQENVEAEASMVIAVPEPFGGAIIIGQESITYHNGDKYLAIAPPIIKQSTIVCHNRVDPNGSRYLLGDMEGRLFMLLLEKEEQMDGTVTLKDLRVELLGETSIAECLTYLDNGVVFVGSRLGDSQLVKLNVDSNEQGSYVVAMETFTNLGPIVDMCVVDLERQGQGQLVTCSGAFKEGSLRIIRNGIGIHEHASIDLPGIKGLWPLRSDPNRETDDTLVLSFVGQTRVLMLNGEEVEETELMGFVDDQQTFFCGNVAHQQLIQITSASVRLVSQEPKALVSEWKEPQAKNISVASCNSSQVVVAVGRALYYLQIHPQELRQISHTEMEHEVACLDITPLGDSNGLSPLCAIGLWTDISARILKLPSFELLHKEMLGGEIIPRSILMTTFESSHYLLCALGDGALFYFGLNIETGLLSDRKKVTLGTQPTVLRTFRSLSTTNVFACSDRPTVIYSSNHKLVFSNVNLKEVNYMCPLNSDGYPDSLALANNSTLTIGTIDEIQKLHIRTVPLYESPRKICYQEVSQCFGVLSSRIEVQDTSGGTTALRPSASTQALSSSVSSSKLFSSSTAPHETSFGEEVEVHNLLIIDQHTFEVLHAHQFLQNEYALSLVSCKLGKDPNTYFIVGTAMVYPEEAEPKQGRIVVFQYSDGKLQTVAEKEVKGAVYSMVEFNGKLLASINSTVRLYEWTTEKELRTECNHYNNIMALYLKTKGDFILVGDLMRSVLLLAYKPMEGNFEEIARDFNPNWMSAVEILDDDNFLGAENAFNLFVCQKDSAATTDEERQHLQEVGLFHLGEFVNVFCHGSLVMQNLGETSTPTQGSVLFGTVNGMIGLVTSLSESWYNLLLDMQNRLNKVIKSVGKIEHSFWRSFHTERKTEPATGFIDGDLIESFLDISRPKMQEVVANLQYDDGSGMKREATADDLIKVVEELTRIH

Row | Structure (SMILES) | IC50 (CRBN/DDB1) | DC50 (IKZF2) | Dmax (IKZF2) | DC50 (IKZF1) | Dmax (IKZF1)
1 | Cn1ccc2c(CN3CCC4(CC3)CC4)cc(-c3ccc4c(c3)CN(C3CCC(=O)NC3=O)C4=O)nc21 (stereo not drawn) [Example 64, 3-(5-(4-((6-azaspiro[2.5]octan-6-yl)methyl)-1-methyl-1H-pyrrolo[2,3-b]pyridin-6-yl)-1-oxoisoindolin-2-yl) piperidine-2,6-dione] | 100 to 500 nM | < 1 nM | > 80% | > 10 µM | 20 to 40%
2 | Cn1ccc2c(CN3CCc4ccccc4C3)cc(-c3ccc4c(c3)CN(C3CCC(=O)NC3=O)C4=O)nc21 (stereo not drawn) [Example 65, 3-(5-(4-((3,4-dihydroisoquinolin-2 (1H)-yl)methyl)-1-methyl-1H-pyrrolo[2,3-b]pyridin-6-yl)-1-oxoisoindolin-2-yl) piperidine-2,6-dione] | 100 to 500 nM | 1 to 10 nM | > 80% | > 10 µM | 20 to 40%
3 | Cn1ccc2c(CN3CC4CC4C3)cc(-c3ccc4c(c3)CN(C3CCC(=O)NC3=O)C4=O)nc21 (stereo not drawn) [Example 66, 3-(5-(4-((3-azabicyclo[3.1.0]hexan-3-yl)methyl)-1-methyl-1H-pyrrolo[2,3-b]pyridin-6-yl)-1-oxoisoindolin-2-yl) piperidine-2,6-dione] | 100 to 500 nM | < 1 nM | > 80% | > 10 µM | 20 to 40%
4 | Cn1ccc2c(CN3Cc4ccccc4C3)cc(-c3ccc4c(c3)CN(C3CCC(=O)NC3=O)C4=O)nc21 (stereo not drawn) [Example 67, 3-(5-(4-(isoindolin-2-ylmethyl)-1-methyl-1H-pyrrolo[2,3-b]pyridin-6-yl)-1-oxoisoindolin-2-yl) piperidine-2,6-dione] | 500 to 1000 nM | 1 to 10 nM | 60 to 80% | > 10 µM | 20 to 40%
5 | Cn1ccc2c(CN3CCS(=O)(=O)CC3)cc(-c3ccc4c(c3)CN(C3CCC(=O)NC3=O)C4=O)nc21 (stereo not drawn) [Example 68, 3-(5-(4-((1,1-dioxidothiomorpholino)methyl)-1-methyl-1H-pyrrolo[2,3-b]pyridin-6-yl)-1-oxoisoindolin-2-yl) piperidine-2,6-dione] | 1000 to 5000 nM | 100 to 1000 nM | 20 to 40% | > 10 µM | < 20%
6 | Cn1ccc2c(CN3CCC4(CCC4)CC3)cc(-c3ccc4c(c3)CN(C3CCC(=O)NC3=O)C4=O)nc21 (stereo not drawn) [Example 69, 3-(5-(4-((7-azaspiro[3.5]nonan-7-yl)methyl)-1-methyl-1H-pyrrolo[2,3-b]pyridin-6-yl)-1-oxoisoindolin-2-yl) piperidine-2,6-dione] | 100 to 500 nM | < 1 nM | > 80% | > 10 µM | 20 to 40%
7 | Cn1ccc2c(CN3CC4COCC(C4)C3)cc(-c3ccc4c(c3)CN(C3CCC(=O)NC3=O)C4=O)nc21 (stereo not drawn) [Example 70, 3-(5-(4-((3-oxa-7-azabicyclo[3.3.1]nonan-7-yl)methyl)-1-methyl-1H-pyrrolo[2,3-b]pyridin-6-yl)-1-oxoisoindolin-2-yl) piperidine-2,6-dione] | 1000 to 5000 nM | 1 to 10 nM | > 80% | > 10 µM | < 20%
8 | Cn1ccc2c(CN3CCC3c3ccccc3)cc(-c3ccc4c(c3)CN(C3CCC(=O)NC3=O)C4=O)nc21 (stereo not drawn) [Example 71, 3-(5-(1-methyl-4-((2-phenylazetidin-1-yl)methyl)-1H-pyrrolo[2,3-b]pyridin-6-yl)-1-oxoisoindolin-2-yl) piperidine-2,6-dione] | 100 to 500 nM | 1 to 10 nM | > 80% | > 10 µM | 20 to 40%
9 | Cn1ccc2c(CN3CC4CCCC4C3)cc(-c3ccc4c(c3)CN(C3CCC(=O)NC3=O)C4=O)nc21 (stereo not drawn) [Example 72, 3-(5-(4-((hexahydrocyclopenta[c]pyrrol-2 (1H)-yl)methyl)-1-methyl-1H-pyrrolo[2,3-b]pyridin-6-yl)-1-oxoisoindolin-2-yl) piperidine-2,6-dione] | 100 to 500 nM | < 1 nM | > 80% | > 10 µM | 40 to 60%
